Test results published in patent US11311543B2, “Compositions and methods for inhibiting PTPN22” (YALE UNIVERSITY, priority 2016, dated 2022).

Assays:
[1] = system: RAMOS cells; assay: Calcium flux induced by BCR triggering in RAMOS cells (flow cytometry); assay type: cell-based, human; conditions: LTV-1 5 μg/mL, anti-IgM F(ab′)2, especially at lower concentration of BCR triggering agent
Description: (§1) FIG. 40A depicts the phosphorylation of SHIP1, Lyn and ERK1/2 in total cell lysates of Ramos B cells treated or not with the PTPN22 inhibitor LTV-1 (5 μg/mL) for the indicated times. The cells were subjected to immunoblot analysis of P-LYN P-SHIP1, P-ERK1/2, and β-ACTIN. FIG. 40B depicts flow cytometry analysis of calcium flux of Ramos B cells treated or not with the PTPN22 inhibitor LTV-1 (5 μg/mL) for the indicated times followed by stimulation with anti-IgM F(ab′)2 at the indicated concentrations. FIG. 40C depicts flow cytometry analysis of calcium flux of splenocyte cells treated or not with LTV-1 (0.75 mg) twice daily for 7 days and stimulated with anti-IgM F(ab′)2 (25 μg/mL). FIG. 40D depicts flow cytometry analysis of calcium flux of splenocyte expressing PTPN22 shRNA and stimulated with anti-IgM F(ab′)2 (25 μg/mL).
(§2) However, downstream ERK phosphorylation was not affected by PTPN22 inhibition (FIG. 40A). Since PTPN22 inhibition enhanced TCR signaling in Jurkat cell line, it was investigated if PTPN22 blockade may also increase BCR signaling and calcium flux induced by BCR triggering was measured in RAMOS cells in the presence or not of LTV-1. Calcium flux was increased by PTPN22 inhibition, especially at lower concentration of BCR triggering agent (FIG. 40B). […]

[2] = system: new emigrant/transitional B cells; assay: Frequencies of autoreactive new emigrant/transitional B cells (central B cell tolerance) in humanized NSG mice engrafted with PTPN22 C/T or T/T HSCs; assay type: in vivo, NSG mice engrafted with human HSCs
Description: FIG. 7, comprising FIG. 7A through FIG. 7C depicts results of experiments showing inhibition of PTPN22 enzymatic activity resets central B cell tolerance. FIG. 7A depicts a schematic diagram depicting the PTPN22 inhibitor treatment strategy. NSG mice generated with CD34+ HSCs carrying PTPN22 T allele(s) were injected twice daily with 0.75 mg or 0.15 mg of PTPN22 inhibitor for one week. FIG. 7B depicts the frequencies of polyreactive new emigrant B cells from NSG mice carrying PTPN22 T allele(s) and treated with the PTPN22 inhibitor were determined and compared to those of non-treated NSG mice. […] For each B-cell fraction, the frequency of reactive (filled area) and non-reactive (open area) clones is summarized in pie charts with the total number of clones tested indicated in the center. In summarized reactivity panels on the right, each dot represents an untreated mouse and full and half-filled diamonds mice treated with either 0.75 or 0.15 mg of LTV-1 PTPN22 inhibitor, respectively. Averages are shown with a bar. FIG. 7C depicts the frequencies of HEp-2 reactive new emigrant B cells from NSG mice carrying PTPN22 T allele(s) and treated with the PTPN22 inhibitor were determined and compared to those of non-treated NSG mice. […] For each B-cell fraction, the frequency of reactive (filled area) and non-reactive (open area) clones is summarized in pie charts with the total number of clones tested indicated in the center. In summarized reactivity panels on the right, each dot represents an untreated mouse and full and half-filled diamonds mice treated with either 0.75 or 0.15 mg of LTV-1 PTPN22 inhibitor, respectively. Averages are shown with a bar.
Human CD34^+ cells were purified from fetal liver samples by density gradient centrifugation followed by positive immunomagnetic selection with anti-human CD34 microbeads (Miltenyi). Newborn NSG mice (within first 3 days of life) were sublethally irradiated (X-ray irradiation with X-RAD 320 irradiator at 180 cGy) and 100,000-150,000 CD34^+ cells in 20 μL of PBS were injected into the liver with a 22-gauge needle (Hamilton Company). Mice were used for experiments 10-12 weeks after transplantation. NSG mice treated with the PTPN22 inhibitor were injected twice daily i.p. with 0.75 mg or 0.15 mg of PTPN22 inhibitor for a week.
The pTRIP-Ubi-GFP lentiviral vector has been used for overexpression of PTPN22 variants and short hairpin RNA (shRNA) delivery. Vector constructions have been described previously (Cantaert et al., 2015, Immunity 43:884-95; Ruer-Laventie et al., 2015, Immun Inflamm Dis 3:265-79). The following sequence are used for human PTPN22 targeting: shRNA1 5′-[…]-3′ (SEQ ID NO: 1), shRNA2 5′-CTGTTGCCAACATCCTCTA-3′(SEQ ID NO: 3), or shRNA3 5′-AAGAATCCACCTGACTTCC-3′(SEQ ID NO: 2). Lentiviral particles were produced by transient transfection of 293T cells, as previously described (Schickel et al., 2012, EMBO Mol Med 4:1261-75). Viruses were then used to transduce CD34^+ HSCs in the presence of protamine sulfate (Sigma).
B cells were enriched from splenocytes using magnetic separation with CD19 microbeads (Miltenyi Biotech) and stained with CD19-Pacific Blue, CD10-PE-Cy7, CD21-APC and IgM-biotin (all from Biolegend) prior to purification. Single CD19^+CD10^+CD21^lowGFP^− or GFP^+ new emigrant B cells were sorted on a FACSAria (BD Biosciences) into 96-well PCR plates and immediately frozen on dry ice. […]

[3] = system: B cells isolated from humanized mice; assay: Calcium flux after BCR triggering in B cells isolated from humanized mice (flow cytometry); assay type: in vivo, humanized NSG mouse; conditions: anti-IgM F(ab′)2 25 μg/mL
Description: as §1, §2

[4] = GFP+ shRNA+ PTPN22 C/T or T/T new emigrant/transitional B cells vs GFP- counterparts

| Molecule | calcium flux induced by BCR triggering [1] | frequencies of HEp-2 reactive new emigrant/transitional B cells ([2]; PTPN22 C/T or T/T engrafted NSG mice, 0.75 mg LTV-1 i.p. twice daily for a week) | frequencies of polyreactive new emigrant/transitional B cells ([2]; PTPN22 C/T or T/T engrafted NSG mice, 0.75 mg LTV-1 i.p. twice daily for a week, vs non-treated) | anti-nuclear clone frequencies ([2]; PTPN22 C/T or T/T engrafted NSG mice, LTV-1 twice daily for a week) | calcium flux in B cells isolated from treated humanized mice ([3]; LTV-1 0.75 mg twice daily for 7 days, vs non-treated) | production of HEp-2 reactive clones [2, 4] | production of polyreactive clones [2, 4] | calcium flux after BCR triggering in GFP+ shRNA-expressing B cells ([3]; GFP+ vs GFP- B cells from humanized NSG mouse) |
| --- | --- | --- | --- | --- | --- | --- | --- | --- |
| Cc1ccccc1N1C(=O)/C(=C/c2ccc(OCc3cccc(C(=O)O)c3)cc2)C(=O)NC1=S [LTV-1] | increased | normalized | significantly reduced | remained very low | enhanced |  |  |  |
| shRNA #1: shRNA targeting human PTPN22, 5′-CTAGTGCTCTTGGTGTATATT-3′, delivered by GFP-tagged lentivirus |  |  |  |  |  | significantly reduced | significantly reduced | increased calcium flux |
